Measurements as given in patent publication US9765069B2, “Antimicrobial compounds” (OXFORD UNIVERSITY INNOVATION LIMITED, priority 2012, dated 2017).
pIC50: −log10 of the molar value. Converted amounts (≈) assume the structure as drawn.

Legend:
E. Coli RNAP = E. Coli RNAP (Escherichia coli, UniProt P0A8T7+P0A8V2); test: In vitro activity against E. Coli RNAP; assay type: biochemical
Description: (§1) These properties can be determined according to techniques that are well known in the art.

S. aureus membrane = test: In vitro activity in depolarization of S. aureus membrane; assay type: cell-based; conditions: read-out: DEP (IC50)
Description: as §1

[1] = test system: mammalian_red blood cell membrane; test: In vitro mammalian red blood cell membrane lysis activity; assay type: cell-based; conditions: Active or inactive at 100 μM
Description: as §1

[2] = test system: human embryonic kidney 293 cells; test: in vitro toxicities against human embryonic kidney 293 cells; assay type: cell-based; conditions: human embryonic kidney 293 cells
Description: as §1

[3] = test system: human peripheral blood cells; test: in vitro toxicities human peripheral blood cells; assay type: cell-based; conditions: human peripheral blood cells
Description: as §1

[4] = aqueous solubility at pH 7.4; assay type: physicochemical; conditions: aqueous solubility at pH 7.4 (water with 2% DMSO)
Description: as §1

S1 = test: MIC determination (bacteria), strain S1; assay type: cell-based, S. aureus; conditions: Table 1; 2-fold broth dilution
Method: (§2) MIC determination (bacteria); MICs were determined based on Clinical and Laboratory Standards Institute (CLSI) methodology (Methods for dilution antimicrobial susceptibility tests for bacteria that grow aerobically; Approved Standard—seventh edition. 2006, M7-A7, CLSI, Wayne Pa.) by a 2-fold broth dilution technique in Mueller Hinton (pH7.4 Biorad). For S. pneumoniae, the medium was supplemented with 2.5% laked horse blood. For H. influenzae, the medium was haemophilus test medium (H.T.M.). Overnight cultures were diluted to obtain the final inoculum of 10^5 cfu/well. Incubation was 37° C. overnight in ambient air. The MIC was defined as the lowest concentration which inhibited all visual growth and expressed in μg/ml. For each bacterial species, all of the molecules were tested in the same experiment in order to give a head-to-head comparison.

S26 = test: MIC determination (bacteria), strain S26; assay type: cell-based, S. aureus; conditions: Table 1; 2-fold broth dilution
Method: as §2

S4 = test: MIC determination (bacteria), strain S4; assay type: cell-based, S. aureus; conditions: Table 1; 2-fold broth dilution
Method: as §2

[5] = test system: S2 (S. aureus 2, MRSA in vivo); test: MIC determination (bacteria), strain S2; assay type: cell-based; conditions: Table 1; 2-fold broth dilution
Method: as §2

E1 = test: MIC determination (bacteria), strain E1; assay type: cell-based, enterococcus; conditions: Table 1; 2-fold broth dilution
Method: as §2

E2 = test: MIC determination (bacteria), strain E2; assay type: cell-based, enterococcus; conditions: Table 1; 2-fold broth dilution
Method: as §2

P1 = test: MIC determination (bacteria), strain P1; assay type: cell-based, S. pneumoniae; conditions: Table 1; 2-fold broth dilution
Method: as §2

P9 = test: MIC determination (bacteria), strain P9; assay type: cell-based, S. pneumoniae; conditions: Table 1; 2-fold broth dilution
Method: as §2

P9B = test: MIC determination (bacteria), strain P9B; assay type: cell-based, S. pneumoniae; conditions: Table 1; 2-fold broth dilution
Method: as §2

H3 = test: MIC determination (bacteria), strain H3; assay type: cell-based, H. influenzae; conditions: Table 1; haemophilus test medium
Method: as §2

H4 = test: MIC determination (bacteria), strain H4; assay type: cell-based, H. influenzae; conditions: Table 1; haemophilus test medium
Method: as §2

E. Coli RNAP, sequence (P0A8V2 whole entry): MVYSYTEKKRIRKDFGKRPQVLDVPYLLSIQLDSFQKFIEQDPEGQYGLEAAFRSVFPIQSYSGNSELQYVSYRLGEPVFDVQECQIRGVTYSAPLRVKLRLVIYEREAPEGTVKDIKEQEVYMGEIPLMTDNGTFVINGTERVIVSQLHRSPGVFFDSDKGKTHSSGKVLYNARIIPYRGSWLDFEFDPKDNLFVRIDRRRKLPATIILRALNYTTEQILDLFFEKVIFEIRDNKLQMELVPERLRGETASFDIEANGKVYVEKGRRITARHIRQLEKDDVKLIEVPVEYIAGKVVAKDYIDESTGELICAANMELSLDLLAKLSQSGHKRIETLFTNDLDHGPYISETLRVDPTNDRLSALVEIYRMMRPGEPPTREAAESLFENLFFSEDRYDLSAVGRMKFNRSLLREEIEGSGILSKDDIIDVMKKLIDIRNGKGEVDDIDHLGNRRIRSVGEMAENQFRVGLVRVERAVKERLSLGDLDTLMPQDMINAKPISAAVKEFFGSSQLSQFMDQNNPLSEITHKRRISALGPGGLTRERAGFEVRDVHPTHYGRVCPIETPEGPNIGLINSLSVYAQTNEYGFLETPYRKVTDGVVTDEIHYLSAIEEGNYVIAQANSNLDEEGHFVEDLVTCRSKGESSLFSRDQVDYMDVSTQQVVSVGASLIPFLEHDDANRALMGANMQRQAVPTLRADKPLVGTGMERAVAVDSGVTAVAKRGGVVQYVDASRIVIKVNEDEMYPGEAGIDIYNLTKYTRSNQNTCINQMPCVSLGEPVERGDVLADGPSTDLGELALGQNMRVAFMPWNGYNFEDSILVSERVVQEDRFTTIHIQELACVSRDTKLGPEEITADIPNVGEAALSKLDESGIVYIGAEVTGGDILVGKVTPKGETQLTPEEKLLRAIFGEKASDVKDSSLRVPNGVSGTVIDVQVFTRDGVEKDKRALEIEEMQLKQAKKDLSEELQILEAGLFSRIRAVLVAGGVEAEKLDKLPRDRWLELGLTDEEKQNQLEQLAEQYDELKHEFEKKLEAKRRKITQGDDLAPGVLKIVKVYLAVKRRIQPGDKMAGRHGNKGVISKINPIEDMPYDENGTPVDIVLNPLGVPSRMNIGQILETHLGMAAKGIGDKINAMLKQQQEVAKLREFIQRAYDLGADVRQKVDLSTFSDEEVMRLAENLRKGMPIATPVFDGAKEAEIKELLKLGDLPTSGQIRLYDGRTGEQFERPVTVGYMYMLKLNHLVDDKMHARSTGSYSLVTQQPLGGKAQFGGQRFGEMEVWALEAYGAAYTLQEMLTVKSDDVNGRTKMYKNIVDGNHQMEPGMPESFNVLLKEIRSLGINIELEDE
E. Coli RNAP, sequence (P0A8T7 whole entry): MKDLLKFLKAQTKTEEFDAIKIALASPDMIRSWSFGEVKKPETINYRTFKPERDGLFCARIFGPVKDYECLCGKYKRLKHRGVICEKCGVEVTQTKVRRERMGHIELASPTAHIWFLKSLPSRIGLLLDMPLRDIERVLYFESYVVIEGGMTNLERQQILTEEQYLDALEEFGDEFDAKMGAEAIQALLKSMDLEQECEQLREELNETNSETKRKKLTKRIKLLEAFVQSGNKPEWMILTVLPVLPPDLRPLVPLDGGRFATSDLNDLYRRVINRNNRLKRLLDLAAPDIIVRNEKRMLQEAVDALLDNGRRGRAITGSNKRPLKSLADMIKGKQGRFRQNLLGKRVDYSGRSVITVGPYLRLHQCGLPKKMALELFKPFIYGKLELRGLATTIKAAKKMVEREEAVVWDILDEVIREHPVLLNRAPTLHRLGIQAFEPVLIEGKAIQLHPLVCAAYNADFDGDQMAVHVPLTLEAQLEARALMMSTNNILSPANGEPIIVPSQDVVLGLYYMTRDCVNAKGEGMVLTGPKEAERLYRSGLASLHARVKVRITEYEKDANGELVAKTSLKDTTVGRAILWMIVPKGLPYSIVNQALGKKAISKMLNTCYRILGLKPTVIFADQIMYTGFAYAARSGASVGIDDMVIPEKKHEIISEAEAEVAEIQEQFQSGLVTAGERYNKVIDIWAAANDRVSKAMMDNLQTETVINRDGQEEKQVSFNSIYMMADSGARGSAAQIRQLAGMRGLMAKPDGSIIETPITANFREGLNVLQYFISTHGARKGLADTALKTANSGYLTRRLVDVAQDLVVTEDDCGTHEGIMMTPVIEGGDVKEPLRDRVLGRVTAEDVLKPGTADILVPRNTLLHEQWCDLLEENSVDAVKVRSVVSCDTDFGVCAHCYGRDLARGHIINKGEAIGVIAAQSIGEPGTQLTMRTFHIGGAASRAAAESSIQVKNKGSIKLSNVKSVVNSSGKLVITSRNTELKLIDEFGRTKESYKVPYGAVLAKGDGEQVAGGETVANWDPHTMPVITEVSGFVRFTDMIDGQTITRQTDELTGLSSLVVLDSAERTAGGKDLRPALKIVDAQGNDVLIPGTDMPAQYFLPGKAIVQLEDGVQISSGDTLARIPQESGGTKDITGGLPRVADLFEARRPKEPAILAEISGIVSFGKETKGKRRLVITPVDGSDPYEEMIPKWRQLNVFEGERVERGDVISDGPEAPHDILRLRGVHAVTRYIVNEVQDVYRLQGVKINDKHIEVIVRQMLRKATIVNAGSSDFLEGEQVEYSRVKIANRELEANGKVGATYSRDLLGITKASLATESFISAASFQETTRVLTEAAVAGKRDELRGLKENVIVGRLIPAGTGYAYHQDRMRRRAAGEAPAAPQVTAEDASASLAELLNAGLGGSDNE
E. Coli RNAP, sequence (P0A7Z4 whole entry partner): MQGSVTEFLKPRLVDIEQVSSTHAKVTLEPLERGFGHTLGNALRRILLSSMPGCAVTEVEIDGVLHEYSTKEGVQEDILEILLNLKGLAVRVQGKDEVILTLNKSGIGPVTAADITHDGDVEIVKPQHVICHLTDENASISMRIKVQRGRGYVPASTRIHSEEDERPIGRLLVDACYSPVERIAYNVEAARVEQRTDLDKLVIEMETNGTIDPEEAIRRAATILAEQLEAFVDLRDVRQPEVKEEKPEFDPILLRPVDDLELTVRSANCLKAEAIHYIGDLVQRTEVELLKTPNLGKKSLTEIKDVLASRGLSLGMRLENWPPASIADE
E. Coli RNAP, sequence (P0A800 whole entry partner): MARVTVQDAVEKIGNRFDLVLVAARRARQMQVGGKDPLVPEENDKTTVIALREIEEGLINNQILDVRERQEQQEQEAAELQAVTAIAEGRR

SMILES | pIC50 (E. Coli RNAP) | pIC50 (S. aureus membrane) | RBC membrane lysis activity (active/inactive) [1] | Hek293 (LD50, μM) [2] [µM] | PMBC (LD50, μM) [3] [µM] | SOL [4] [µM] | MIC S1 (S1) [µg/mL] | MIC S26 (S26) [µg/mL] | MIC S4 (S4) [µg/mL] | MIC S2 [5] [µg/mL] | MIC E1 (E1) [µg/mL] | MIC E2 (E2) [µg/mL] | MIC P1 (P1) [µg/mL] | MIC P9 (P9) [µg/mL] | MIC P9B (P9B) [µg/mL] | MIC H3 (H3) [µg/mL] | MIC H4 (H4) [µg/mL] | RBCL (IC50, μM) [1]
CCCCCCCCCCCCC/C(O)=C1\C(=O)[C@@H]2CCCC(=O)N2C1=O [22b] | < 4.00 | < 4.00 | Active | 90.9 | >90.9 | 38 to 75 | – | – | – | – | – | – | – | – | – | – | – | –
CCCCCCCCCCCC(O)=C1C(=O)C(CCSC)N(C(C)=O)C1=O (stereo not shown) [24b] | 4.60 | – | – | 30.3 | 90.9 | >300 | 0.25 (≈ 0.629 µM) | 2 (≈ 5.03 µM) | 1 (≈ 2.52 µM) | 1 (≈ 2.52 µM) | <0.06 | <0.06 | <0.06 | <0.06 | 0.5 (≈ 1.26 µM) | 2 (≈ 5.03 µM) | 2 (≈ 5.03 µM) | –
CCCCCCCC(O)=C1C(=O)C(CCSC)N(C(=O)C2CCCCC2)C1=O (stereo not shown) [24e] | – | < 4.00 | Inactive^d | >90.9 | >90.9 | >300 | 0.5 (≈ 1.22 µM) | 1 (≈ 2.44 µM) | 2 (≈ 4.88 µM) | 0.5 (≈ 1.22 µM) | 0.25 (≈ 0.61 µM) | 0.5 (≈ 1.22 µM) | 0.12 (≈ 0.293 µM) | 0.12 (≈ 0.293 µM) | 1 (≈ 2.44 µM) | 16 (≈ 39.1 µM) | 2 (≈ 4.88 µM) | –
CCCCCC(O)=C1C(=O)C(CCSC)N(C(=O)CC(C)CC(C)(C)C)C1=O (stereo not shown) [24i] | 4.48 | < 4.00 | – | 10.1 | 30.3 | >300 | 0.25 (≈ 0.607 µM) | 1 (≈ 2.43 µM) | 0.5 (≈ 1.21 µM) | 0.5 (≈ 1.21 µM) | 0.5 (≈ 1.21 µM) | 0.25 (≈ 0.607 µM) | 0.25 (≈ 0.607 µM) | 0.25 (≈ 0.607 µM) | 2 (≈ 4.86 µM) | 8 (≈ 19.4 µM) | 2 (≈ 4.86 µM) | Active
CCCCCCCC(O)=C1C(=O)C(CCSC)N(C(=O)CC(C)CC(C)(C)C)C1=O (stereo not shown) [24j] | 4.72 | < 4.00 | Active | 10.1 | 30.3 | >300 | 0.5 (≈ 1.14 µM) | 1 (≈ 2.27 µM) | 0.5 (≈ 1.14 µM) | 0.5 (≈ 1.14 µM) | 0.25 (≈ 0.569 µM) | 0.25 (≈ 0.569 µM) | 0.12 (≈ 0.273 µM) | 0.12 (≈ 0.273 µM) | 4 (≈ 9.1 µM) | >64 | 2 (≈ 4.55 µM) | –
CCCCCCCCCC(O)=C1C(=O)C(CCSC)N(C(=O)CC(C)CC(C)(C)C)C1=O (stereo not shown) [24k] | – | 4.16 | Active | 10.1 | 90.9 | >300 | 0.5 (≈ 1.07 µM) | 1 (≈ 2.14 µM) | 0.5 (≈ 1.07 µM) | 0.5 (≈ 1.07 µM) | 0.5 (≈ 1.07 µM) | 0.25 (≈ 0.535 µM) | 0.25 (≈ 0.535 µM) | 0.12 (≈ 0.257 µM) | 2 (≈ 4.28 µM) | >64 | 64 (≈ 137 µM) | –
CCCCCCCCCC(O)=C1C(=O)C(CCSC)N(C(=O)Cc2cccs2)C1=O (stereo not shown) [24m] | – | < 4.00 | Active | 30.3 | 90.9 | >300 | 2 (≈ 4.43 µM) | 4 (≈ 8.86 µM) | 2 (≈ 4.43 µM) | 2 (≈ 4.43 µM) | 2 (≈ 4.43 µM) | 0.5 (≈ 1.11 µM) | 0.5 (≈ 1.11 µM) | 0.25 (≈ 0.554 µM) | 4 (≈ 8.86 µM) | 16 (≈ 35.4 µM) | 4 (≈ 8.86 µM) | –
